Assays:
[1] = tested on: myoblast strain H9c2 (2-1) derived from the rat cardiac muscle; test: PDT cell lethality (CCK-8) in cell strain H9c2 (2-1); type: cell-based
Experimental: Using a skeletal muscle-like myoblast strain H9c2 (2-1) derived from the rat cardiac muscle, the relationship between the photosensitizer concentration and the cell lethality and the laser output required to induce cell death were investigated.
The above-mentioned cells were subcultured in a D-MEM+10% FBS medium, confluent cells were isolated, seeded on a 96-well microplate, and cultured at 37° C. under 5% CO2 for one day.
The cultured cells were adjusted to a density of 2.0×10^4 cells/well. As a photosensitizer, talaporfin sodium was dissolved in a medium at various concentrations and added at a concentration of 0.1 ml/well. After 1 to 2 h of loading, cells were irradiated with a laser beam. After completion of irradiation, the medium was replaced.
At this time, in a 0.5-cm^2 irradiation field (=area of the well) was irradiated with a continuous semiconductor laser beam (peak wavelength, 670.8 nm) under various conditions.
After irradiation with a laser beam, 0.01 ml of Cell Counting Kit-8 (Dojindo Laboratories, hereinafter referred to as CCK-8) was added to the medium in each well, the plate was incubated for 2 h, and then absorbance was measured to obtain the cell lethality. For calculation of the cell lethality, the property of a coloring reagent in CCK-8 of producing a color upon reduction with dehydrogenase in the cell was utilized. Six samples were examined.
(§1) The experimental conditions were as follows.
(i) Relationship between photosensitizer concentration and cell lethality
Agent concentrations: 10, 20, 30, 40 μg/ml
(§2) Laser intensity: 150 mW/cm^2
(§3) Total energy density: 3 J/cm^2
(ii) Relationship between total energy density of laser irradiation and cell lethality
Agent concentrations: 7.5, 15 μg/ml
Total energy density: 3, 6, 9, 12 J/cm^2
(iii) Relationship between laser intensity and cell lethality

[2] = tested on: isolated ventricular muscle tissue; test: Formation of electrical conduction block by PDT in isolated cardiac muscle tissue; parameters: species or system Wister rat; settings: 4.3 μg/ml
Experimental: An electrical conduction block was formed by performing PDT using a cardiac muscle tissue.
A cardiac muscle tissue was isolated from a Wister rat, immersed in a perfusion fluid (Tyrode's solution [aerated with 95% O2 and 5% CO2 gases and stored at 37° C. in a constant-temperature apparatus]), spread, fixed on the floor (made of silicon) of a tissue bath with a tungsten wire to prepare a spread sample (maximum 1.5 cm long, 1.0 cm width, 0.18 cm thickness) of an isolated ventricular muscle. A perfusion fluid was passed through the spread sample and stabilized by allowing to stand for approx. 3 h. At this time, the perfusion fluid was not reused.
As a photosensitizer, talaporfin sodium was dissolved in a perfusion fluid at 4.3 μg/ml, and 300 cc was circulated and perfused. It is assumed that, when a photosensitizer is intravenously injected to a 300-g rat at approx. 2 mg/kg, the photosensitizer is dissolved at about this concentration in the fluid throughout the body. After loading for 2 h, a liquid level of the perfusion fluid was lowered to the tissue surface or lower, and the spread tissue was irradiated with a laser beam.
The irradiation laser beam was a continuous semiconductor laser beam (peak wavelength, 670.8 nm) and was delivered to the tissue from an irradiation port of 0.0078 cm^2 at the fiber end with an intensity of 150 mW/cm^2 in a contact state. While moving the fiber, a 0.1-cm^2 (0.1 cm length×1 cm width) region of the tissue surface was irradiated with a laser beam for 5 min. Irradiation was performed at 3.5 J/cm^2 in terms of total energy density.
The tissue action potential was measured as follows. An electrical stimulus of 2 Hz and 50 mA was applied from a bipolar electrode (0.2φ silver wire) using a stimulator, and a potential of the tissue surface was led with a bipolar measuring electrode (0.25φ stainless wire).
FIGS. 8A to 8F show changes in the potential of the spread tissue. In FIGS. 8A to 8F, the upper line represents potential changes at site 1 in FIG. 7. The lower line represents potential changes at site 2 in FIG. 7. The unit of the vertical axis is mV.

[3] = human; intravenous injection 1 mg/kg; cited from earlier work
[4] = tested on: rat cardiac muscle cells in primary culture; test: PDT cell lethality (CCK-8) in cardiac muscle cells in primary culture; type: cell-based
Experimental: The relationship between the photosensitizer concentration and the cell lethality and the laser output required to induce a cell death were investigated using rat cardiac muscle cells in primary culture.
Cardiac muscle cells in primary culture were purchased from Cell Garage Co., Ltd. as an extract from the rat ventricular muscle. As a medium, D-MEM/F12+10% FBS was used.
Cardiac muscle cells in primary culture were purchased in suspension and seeded on a 96-well microplate. Cells were cultured at 37° C. under 5% CO2, and cells on days 3 and 7 of culture were used. The cardiac muscle cells in primary culture were pulsatile, and pulsations among cells were synchronizing.
Cardiac muscle cells in primary culture were adjusted to a density of 2.0×10^4 cells/well. As a photosensitizer talaporfin sodium was dissolved in a medium at various concentrations and added at a concentration of 0.1 ml/well. After 1 to 2 h of loading, laser irradiation was performed, and the medium was replaced after the completion of irradiation.
At this time, a 0.5-cm^2 irradiation field (=area of well) was irradiated with a continuous semiconductor laser beam (peak wavelength, 670.8 nm) under various conditions.
After laser irradiation, 0.01 ml of Cell Counting Kit-8 (Dojindo Laboratories, hereinafter referred to as CCK-8) was added to the medium in each well, the plate was incubated for 2 h, and the absorbance was measured to calculate the cell lethality. Six samples were examined
as §1
(i) Cells on day 3 of culture
Used cells: cells on day 3 of culture
Agent concentrations: 5, 10, 15 μg/ml
as §2
Total energy density: 1, 2, 3, 5 J/cm^2
(ii) Cells on day 7 of culture
Used cells: cells on day 7 of culture
Agent concentrations: 20, 25, 30 μg/ml
as §3

C=Cc1c(C)c2cc3nc(c(CC(=O)N[C@@H](CC(=O)O)C(=O)O)c4[nH]c(cc5nc(cc1[nH]2)C(C)=C5CC)c(C)c4C(=O)O)[C@@H](CCC(=O)O)[C@@H]3C [talaporfin sodium, mono-L-aspartyl chlorine 6]
cell death vs total energy density ([1]; 7.5 μg/ml, 150 mW/cm^2, 3, 6, 9, 12 J/cm^2, FIG. 2): almost no cell death was observed | cell lethality vs total energy density ([1]; 15 μg/ml, 150 mW/cm^2, 3, 6, 9, 12 J/cm^2, FIG. 2): the greater the total energy density of laser irradiation was, the higher the cell lethality was | cell lethality at 40 μg/ml ([1]; 40 μg/ml vs 30 μg/ml, 150 mW/cm^2, 3 J/cm^2): the result did not differ from that at 30 μg/ml | cell lethality vs laser intensity ([1]; 7.5, 15 μg/ml, 3 J/cm^2, laser intensity 50 to 200 mW/cm^2, FIG. 3): the cell lethality did not change | cell lethality vs photosensitizer concentration ([1]; up to 30 μg/ml, 150 mW/cm^2, 3 J/cm^2, FIG. 1): the higher the photosensitizer concentration was, the higher the cell lethality was | time without electrical conduction after block ([2]; loading 2 h, 3.5 J/cm^2): ≥ 1 h | electrical conduction (potential at site 2) ([2]; loading 2 h, 3.5 J/cm^2, 5 min after the completion of laser irradiation): the electrical conduction route was completely blocked | electrical conduction (potential at site 2) ([2]; loading 2 h, 150 mW/cm^2, 5 min after the start of laser irradiation): a portion of the stimulus conduction route is blocked | cell conditions in tissue sample at PDT site ([2]; 3.5 J/cm^2, FIG. 9): no major abnormality was observed in the cell conditions | early average half-life in plasma [3]: 14.6 h | plasma concentration at 10 min [3]: 27000 ng/mL | cell lethality at 5 J/cm^2 vs 3 J/cm^2 ([4]; cells on day 3 of culture, 15 μg/ml): the cell lethality decreased at the total energy density of laser irradiation of 5 J/cm^2 as compared with that at 3 J/cm^2 | cell lethality vs total energy density ([4]; cells on day 3 of culture, high talaporfin sodium concentration, 1, 2, 3, 5 J/cm^2, FIG. 10): the greater the total energy density of laser irradiation was, the higher cell lethality was | cell lethality, day 7 vs day 3 cells ([4]; cells on day 7 of culture, 20, 25, 30 μg/ml, 3 J/cm^2, FIG. 11): the cell lethality was higher than when cells on day 3 of culture were used
